Reference: patent EP3750528A1, “COMPOSITIONS FOR TREATING DYSTROPHIES AND MYOTONIA” (Nexien Biopharma, Inc., priority 2019, dated 2020)

Key:
dystrophic mdx mice = details: injection; mostly via activation of TRPV1 and TRPA1; cited from earlier work
myotonia and myalgia = assay: Previous treatments for myotonia and myalgia (case history)
[1] = Patient 2 (DM2), suspended also for risk of cardiac arrhythmias
[2] = Patient 6 (CLCN1-congenital myotonia)

For `C=C(C)[C@@H]1CCC(C)=C[C@H]1c1c(O)cc(CCCCC)cc1O` [CBD, cannabidiol], which “effect in dystrophic mdx mice” value (dystrophic mdx mice) is on record?
Its value is “promoted myotube formation and reduced inflammation”.

What does the source list for `NC(=O)N1c2ccccc2C=Cc2ccccc21` [carbamazepine]?
myotonia under previous treatment (myotonia and myalgia; [1]): inefficacy; myotonia under previous treatment (myotonia and myalgia; [2]): no relevant improvement of myotonia

For `O=C(NCC1CCCCN1)c1cc(OCC(F)(F)F)ccc1OCC(F)(F)F` (stereo not shown) [flecainid], which “myotonia under previous treatment” value (myotonia and myalgia; [2]) is on record?
The value was “no relevant improvement of myotonia”.

With `CC(C)Cc1ccc(C(C)C(=O)O)cc1` (stereo not shown) [ibuprofen] as the compound, how does the “myalgia under previous treatment” value (myotonia and myalgia; Patient 2 (DM2)) read?
The value was “unsuccessfully treated”.

With `Nc1nnc(-c2cccc(Cl)c2Cl)c(N)n1` [lamotrigine] as the compound, how does the “myotonia under previous treatment” value (myotonia and myalgia; [2]) read?
The value was “no relevant improvement of myotonia”.

With `COc1ccccc1OCC(O)COC(N)=O` (stereo not shown) [methocarbamol] as the compound, how does the “myalgia under previous treatment” value (myotonia and myalgia; Patient 2 (DM2)) read?
The value was “unsuccessfully treated”.

Which results are given for `Cc1cccc(C)c1OCC(C)N` (stereo not shown) [mexiletine]?
myotonia under previous treatment (myotonia and myalgia; [1]): inefficacy; myotonia under previous treatment (myotonia and myalgia; [2]): improved the myotonia; drug-related side effect of previous treatment (myotonia and myalgia; Patient 6, resolved on drug discontinuation): severe major depression

Which results are given for `CC(C)C[C@H](CN)CC(=O)O` [pregabalin]?
myalgia under previous treatment (myotonia and myalgia; Patient 2 (DM2)): unsuccessfully treated; myotonia under previous treatment (myotonia and myalgia; [1]): inefficacy

Which “myotonia under previous treatment” value (myotonia and myalgia; [2]) does the source give for `Cc1ccc(C(=O)C(C)CN2CCCCC2)cc1` (stereo not shown) [tolperisone] here?
Its value is “no relevant improvement of myotonia”.
